# Test results from paper PMC10525516, “Novel NADPH Oxidase-2 Inhibitors as Potential Anti-Inflammatory and Neuroprotective Agents” (Antioxidants, 2023).
# Test: Short-term (seven day) in vivo toxicity in mice
# Parameters: species or system C57BL/6 mice
# Conditions: 20 mg/kg i.p. daily for seven days
# Protocol: All animal experiments were performed according to protocols and guidelines approved by the Emory University Animal Care and Use Committee. The in vivo toxicity of TG15-132 was assessed using C57BL/6 mice (cat. no. 027, Charles River Laboratories, Wilmington, MA, USA). Animals were injected daily (i.p.) with saline, vehicle (DMSO 10%, PEG400 30%, water 60%), or 20 mg/kg of TG15-132 in vehicle for seven days, with body weight recorded each day. At the end of treatment, organs were harvested to study organ weight loss, and blood was collected from each mouse via cardiac puncture, and serum was isolated. Serum was analyzed for kidney function using blood urea nitrogen and creatinine, liver function using alanine amino transferase, and tissue damage using lactate dehydrogenase.
smiles,measurement,setting,value
CN(C)CCCn1c(SCCc2c[nH]c3ccccc23)nc2ccc(F)cc2c1=O [TG15-132],blood urea nitrogen compared with saline-treated mice,,significant drop
same,"weights of the lung, liver, or brain",,no changes
same,loss of body weight,marginal and nonsignificant,7%
same,"serum injury markers (BUN, creatinine, ALT, LDH) vs vehicle",n = 6,no differences
